Data as given in PMC11215771 (Journal of Medicinal Chemistry, 2024).

Assays:
[1] = target: T1, hBACE2 fused to EGFP in HEK293T cells (Homo sapiens, UniProt Q9Y5Z0); assay: Staining of transfected HEK293T cells, confocal imaging: BACE2; assay type: cell-based
T1 construct: expressed in transfected cells; host or cells: HEK293T
T1 sequence (Q9Y5Z0 63-518): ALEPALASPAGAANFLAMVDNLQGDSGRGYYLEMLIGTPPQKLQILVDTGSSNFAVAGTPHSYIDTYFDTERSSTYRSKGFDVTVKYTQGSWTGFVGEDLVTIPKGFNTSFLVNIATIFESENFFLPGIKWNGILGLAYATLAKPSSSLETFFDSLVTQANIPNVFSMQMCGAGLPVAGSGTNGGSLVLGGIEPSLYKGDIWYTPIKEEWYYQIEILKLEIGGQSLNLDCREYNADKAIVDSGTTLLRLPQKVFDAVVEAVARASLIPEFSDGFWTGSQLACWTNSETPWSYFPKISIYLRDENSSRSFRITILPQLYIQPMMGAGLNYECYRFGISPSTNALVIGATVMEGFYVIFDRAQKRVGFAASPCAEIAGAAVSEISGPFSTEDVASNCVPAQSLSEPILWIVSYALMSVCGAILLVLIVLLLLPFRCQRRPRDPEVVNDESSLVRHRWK
Description: (§1) Next, we explored the performance of the new Alexa-C3 compounds in living cells. Because of the rather hydrophilic properties, we exclusively targeted the cell membrane. To prevent intracellular accumulation, we first performed stainings at 4 °C arresting ATP-dependent endocytosis. […] All of the constructs were tagged at the C-terminus with either EGFP or mCherry to visualize subcellular expression. […] With these experiments, we want to exclude that a lack of staining is caused by an impaired accessibility of the protein by Alexa-C3 compounds. […] We then tested samples with BACE1 expression after fixation of the cells with paraformaldehyde (PFA).
(§2) (D) All conjugates were also probed on cells fixed with 4% paraformaldehyde (PFA) for 15 min prior to staining. […] Scale bars represent 5 μm (A–D) and 20 μm (E). […] Samples were excited at 488, 561, and 633 nm, respectively.
(§3) HEK293T cells (ATCC accession number CRL-11268) were maintained in Dulbecco's modified Eagle's medium (Sigma-Aldrich D6046) with 1g/L glucose, supplemented with 10% FCS (Merck) and 1% penicillin/streptomycin (PAA). CHO-K1 cells (ATCC #CCL-61) were maintained in modified phenol red free RPMI-1640 medium (Sigma-Aldrich, R7509), supplemented with 2 mM L-glutamine (Sigma-Aldrich, G7513), and 10% FCS (Merck). Cells were cultured at 37 °C in a 5% CO2 atmosphere. […]

[2] = target: T2, hCathepsinD in HEK293T cells (Homo sapiens, UniProt P07339); assay: Staining of transfected HEK293T cells, confocal imaging: Cathepsin D; assay type: cell-based
T2 construct: EGFP or mCherry (C); host or cells: HEK293T
Description: as §1, §2, §3

T2 sequence (P07339 65-412): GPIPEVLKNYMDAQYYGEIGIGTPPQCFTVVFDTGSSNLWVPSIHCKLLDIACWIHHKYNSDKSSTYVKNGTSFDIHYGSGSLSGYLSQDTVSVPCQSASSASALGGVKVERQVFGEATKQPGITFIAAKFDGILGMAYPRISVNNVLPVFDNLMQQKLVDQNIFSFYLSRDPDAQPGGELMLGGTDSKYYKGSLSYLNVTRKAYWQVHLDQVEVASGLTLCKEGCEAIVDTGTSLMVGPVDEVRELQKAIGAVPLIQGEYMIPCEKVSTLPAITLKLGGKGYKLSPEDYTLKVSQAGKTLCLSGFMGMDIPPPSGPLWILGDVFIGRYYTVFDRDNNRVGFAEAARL

SMILES: C[C@@H](NC(=O)c1cc(C(=O)N[C@@H](Cc2ccccc2)[C@H](O)CNC2CC2)cc(N(C)S(=O)(=O)CCCNC(=O)CCCCCC2(C)C(/C=C/C=C/C=C3/N(CCCS(=O)(=O)O)c4ccc(S(=O)(=O)O)cc4C3(C)C)=[N+](CCCS(=O)(=O)[O-])c3ccc(S(=O)(=O)O)cc32)c1)c1ccccc1 (some centres unmarked)
- staining of BACE2 [1]: not labeled
- staining of Cathepsin D [2]: not labeled
